Reference: publication PMC11451537, “P2X7 receptors exhibit at least three modes of allosteric antagonism” (Science Advances, 2024)

How the values were obtained:
[1] = target: T1, rP2X7 (Rattus norvegicus, UniProt Q64663); test: TEVC recovery of current after complete inhibition (IC100), rP2X7; details: 120 s buffer wash, 100 μM ATP
T1 sequence (Q64663 1-595): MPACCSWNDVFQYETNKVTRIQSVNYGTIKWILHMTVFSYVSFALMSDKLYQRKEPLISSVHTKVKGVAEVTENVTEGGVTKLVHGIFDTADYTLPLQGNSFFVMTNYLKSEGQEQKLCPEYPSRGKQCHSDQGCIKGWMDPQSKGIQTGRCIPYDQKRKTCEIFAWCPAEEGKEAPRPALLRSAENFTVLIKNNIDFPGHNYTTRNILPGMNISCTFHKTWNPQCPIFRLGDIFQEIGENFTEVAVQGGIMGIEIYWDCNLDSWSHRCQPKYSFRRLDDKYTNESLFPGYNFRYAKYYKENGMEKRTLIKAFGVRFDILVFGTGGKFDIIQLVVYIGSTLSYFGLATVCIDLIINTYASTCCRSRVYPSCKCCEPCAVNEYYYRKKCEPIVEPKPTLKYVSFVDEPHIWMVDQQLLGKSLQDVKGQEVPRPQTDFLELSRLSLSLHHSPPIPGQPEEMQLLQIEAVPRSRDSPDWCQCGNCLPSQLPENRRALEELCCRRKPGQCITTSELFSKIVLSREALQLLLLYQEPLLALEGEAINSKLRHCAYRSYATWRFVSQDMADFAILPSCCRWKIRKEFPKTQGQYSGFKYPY

[2] = target: T1, rP2X7; test: TEVC inhibition dose-response (IC50), wild-type rP2X7 in Xenopus laevis oocytes; assay type: cell-based; parameters: the rP2X7-WT construct used for electrophysiology experiments is unmodified full-length, wild-type rP2X7; expressed in transfected cells; host or cells: Xenopus laevis oocytes injected with mRNA made from pcDNA3.1x; details: for IC100 (100% inhibitory concentration): calculated from IC50 values, concentration applied in the recovery experiments; for IC50: wild-type rP2X7, TEVC, 100 μM ATP, 60 s antagonist pre-application, mean ± SD, triplicate
Description: (§1) To evaluate the inhibitory response of an antagonist for a dilution series, an initial excitatory signal was evoked at a subtype-specific concentration of ATP. Next, the antagonist was applied at a test concentration for 60 s and then coapplied at the same test concentration of the antagonist with the identical subtype-specific concentration of ATP. The antagonized signal was then normalized against the preceding excitatory signal evoked by ATP for each individual oocyte tested. The pre- and post-antagonist signals were evoked by 10 μM ATP for hP2X1, 10 μM ATP for hP2X2, 1 μM ATP for hP2X3, 50 μM ATP for hP2X4, and 100 μM ATP for P2X7. For the K297V mutation in rP2X7, pre- and post-antagonist signals were evoked by 300 μM ATP. Each dataset was then fit to a nonlinear regression named “[inhibitor] vs. response – Variable slope (four parameters)” in GraphPad Prism 9 to produce a sigmoidal curve and afford an IC50 value. Each singular condition was used to generate an average which is reported plus or minus its SD between three discrete trials.

[3] = target: T2, hP2X2 (Homo sapiens, UniProt Q9UBL9); test: TEVC inhibition dose-response (IC50), hP2X2 in Xenopus laevis oocytes; assay type: cell-based; details: 10 μM ATP, mean ± SD, triplicate
T2 construct: The hP2X1-WT, hP2X2-WT, hP2X3-WT, hP2X4-WT, and hP2X7-WT constructs used for electrophysiology are similarly unmodified full-length, wild-type receptor constructs; expressed in transfected cells; host or cells: Xenopus laevis oocytes injected with mRNA made from pcDNA3.1x
T2 sequence (Q9UBL9 1-471): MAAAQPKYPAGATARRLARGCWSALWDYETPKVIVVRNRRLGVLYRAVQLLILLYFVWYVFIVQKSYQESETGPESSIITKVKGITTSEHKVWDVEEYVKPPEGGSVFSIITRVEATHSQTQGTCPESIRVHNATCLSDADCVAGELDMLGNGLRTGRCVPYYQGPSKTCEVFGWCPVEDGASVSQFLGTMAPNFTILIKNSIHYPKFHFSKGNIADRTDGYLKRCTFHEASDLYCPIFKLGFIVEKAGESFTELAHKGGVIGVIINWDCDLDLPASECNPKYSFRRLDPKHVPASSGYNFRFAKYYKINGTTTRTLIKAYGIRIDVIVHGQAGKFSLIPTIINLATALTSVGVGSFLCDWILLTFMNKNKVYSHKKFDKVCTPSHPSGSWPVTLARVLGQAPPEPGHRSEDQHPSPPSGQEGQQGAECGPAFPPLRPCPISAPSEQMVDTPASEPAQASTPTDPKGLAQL
Description: as §1

| SMILES | Recovery of activation (% of baseline current) ([1]; rP2X7, 40-s IC100 application) | Recovery of activation (% of baseline current) ([1]; rP2X7, 120-s IC100 application) | Recovery of activation (% of baseline current) ([1]; rP2X7, 240-s IC100 application) | IC100 (100% inhibitory concentration) [2] | IC50 [2] | IC50 [3] |
| --- | --- | --- | --- | --- | --- | --- |
| Clc1cccc(-c2nnnn2Cc2cccnc2)c1Cl [A438079] | 81 ± 5% | 48 ± 15% | 50 ± 11% | 6.6 µM | 550 ± 113 nM |  |
| Clc1cccc(-n2nnnc2NCc2ccccc2Oc2ccccn2)c1Cl [A839977] | 67 ± 6% | 6.7 ± 2% | 1.4 ± 0.3% | 1 µM | 116 ± 13 nM |  |
| O=C(NCC12CC3CC(CC(C3)C1)C2)c1cc(CCCNCCCO)ccc1Cl [AZD9056] | 82 ± 5% | 47 ± 9% | 29 ± 15% | 3 µM | 300 ± 100 nM |  |
| CN1C(=O)CC[C@H]1C(=O)NCc1cccc(C(F)(F)F)c1Cl [GSK1482160] | 69 ± 4% | 45 ± 6% | 29 ± 9% | 81 µM | 3600 ± 500 nM |  |
| O=C(NCC1(N2CCN(c3ccccc3)CC2)CCOCC1)c1cccnc1Sc1ccccc1 [JNJ47965567] | 1.4 ± 0.2% | 1.6 ± 1% | 2 ± 1% | 1.3 µM | 22 ± 6 nM |  |
| O=S(=O)(O)c1ccc(N=C2C=CC(=C(c3ccc(Nc4ccc(S(=O)(=O)O)cc4)cc3)c3ccc(Nc4ccc(S(=O)(=O)O)cc4)cc3)C=C2)cc1 [methyl blue] | 53 ± 4% | 15 ± 5% | 4 ± 1% | 108 µM | 4000 ± 1000 nM | 13 ± 2 µM |
